# Experimental data taken from the supplement of paper PMC10307832.
# Legend:
# Assay in all cases: relative viability (nuclei count vs DMSO), 5 days (fraction); higher = more cells survive
# MLN4924 + OSI-027 = compound: NS(=O)(=O)OC[C@@H]1C[C@@H](n2ccc3c(N[C@H]4CCc5ccccc54)ncnc32)C[C@@H]1O [MLN4924] + COc1cccc2cc(-c3nc([C@H]4CC[C@H](C(=O)O)CC4)n4ncnc(N)c34)[nH]c12 [OSI-027] (partner 0.5 µM)
# Procedure, shortened: (§1)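 After 5 days of treatment, lung cancer cells in 1536-well plates were fixed and stained in a single step (final 0.05% Triton X-100, 1% formaldehyde, 1 ug/ml Hoechst) and their nuclei counted on 4× images. Treatment had been applied by pin tool the day after seeding as one drug alone or as a fixed anchor-drug dose with five library-drug doses (not always all listed) in √10 steps. Relative viability is the nuclei count of treated wells divided by that of vehicle wells, and values are medians of duplicate plates.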
# MLN4924 + Alpelisib = compound: NS(=O)(=O)OC[C@@H]1C[C@@H](n2ccc3c(N[C@H]4CCc5ccccc54)ncnc32)C[C@@H]1O [MLN4924] + Cc1nc(NC(=O)N2CCC[C@H]2C(N)=O)sc1-c1ccnc(C(C)(C)C(F)(F)F)c1 [Alpelisib] (partner 2 µM)
# Procedure, shortened: as §1
# MLN4924 + Crizotinib = compound: NS(=O)(=O)OC[C@@H]1C[C@@H](n2ccc3c(N[C@H]4CCc5ccccc54)ncnc32)C[C@@H]1O [MLN4924] + C[C@@H](Oc1cc(-c2cnn(C3CCNCC3)c2)cnc1N)c1c(Cl)ccc(F)c1Cl [Crizotinib] (partner 1 µM)
# Procedure, shortened: as §1
# MLN4924 + Foretinib = compound: NS(=O)(=O)OC[C@@H]1C[C@@H](n2ccc3c(N[C@H]4CCc5ccccc54)ncnc32)C[C@@H]1O [MLN4924] + COc1cc2c(Oc3ccc(NC(=O)C4(C(=O)Nc5ccc(F)cc5)CC4)cc3F)ccnc2cc1OCCCN1CCOCC1 [Foretinib] (partner 0.25 µM)
# Procedure, shortened: as §1
Cell Line,relative viability (MLN4924 + OSI-027; first compound 0.04 µM),relative viability (MLN4924 + OSI-027; first compound 0.1265 µM),relative viability (MLN4924 + OSI-027; first compound 0.4 µM),relative viability (MLN4924 + OSI-027; first compound 1.265 µM),relative viability (MLN4924 + OSI-027; first compound 4 µM),relative viability (MLN4924 + Alpelisib; first compound 0.04 µM),relative viability (MLN4924 + Alpelisib; first compound 0.1265 µM),relative viability (MLN4924 + Alpelisib; first compound 0.4 µM),relative viability (MLN4924 + Alpelisib; first compound 1.265 µM),relative viability (MLN4924 + Alpelisib; first compound 4 µM),relative viability (MLN4924 + Crizotinib; first compound 0.04 µM),relative viability (MLN4924 + Crizotinib; first compound 0.1265 µM),relative viability (MLN4924 + Crizotinib; first compound 0.4 µM),relative viability (MLN4924 + Crizotinib; first compound 1.265 µM),relative viability (MLN4924 + Crizotinib; first compound 4 µM),relative viability (MLN4924 + Foretinib; first compound 0.04 µM),relative viability (MLN4924 + Foretinib; first compound 0.1265 µM),relative viability (MLN4924 + Foretinib; first compound 0.4 µM),relative viability (MLN4924 + Foretinib; first compound 1.265 µM),relative viability (MLN4924 + Foretinib; first compound 4 µM)
NCI-H522,0.666,0.64,0.398,0.317,0.465,,,,,,,,,,,,,,,
NCI-H1299,,,,,,1.03,1.07,0.71,0.333,0.263,0.875,0.825,0.4,0.252,0.246,1.01,0.82,0.499,0.33,0.176
NCI-H1395,0.641,0.606,0.602,0.349,0.39,1.05,0.812,0.553,0.343,0.365,,,,,,0.951,0.818,0.538,0.41,0.362
NCI-H1623,0.404,0.421,0.404,0.333,0.314,,,,,,,,,,,0.704,0.536,0.468,0.289,0.294
NCI-H1648,0.246,0.235,0.21,0.205,0.228,,,,,,,,,,,,,,,
NCI-H1650,0.564,0.379,0.184,0.102,0.17,,,,,,1.04,0.658,0.333,0.202,0.166,0.92,0.951,0.325,0.217,0.19
NCI-H1703,,,,,,0.22,0.177,0.189,0.135,0.121,0.214,0.159,0.187,0.109,0.0907,0.267,0.226,0.19,0.173,0.248
NCI-H1792,0.663,0.765,0.839,0.593,0.54,0.685,0.758,0.944,0.441,0.21,0.961,0.906,0.834,0.69,0.346,,,,,
NCI-H1793,0.293,0.26,0.303,0.243,0.261,0.804,0.801,0.732,0.513,0.276,,,,,,0.822,1.08,0.957,0.461,0.256
NCI-H2342,0.586,0.779,0.532,0.594,0.547,,,,,,,,,,,1.17,1.06,1.24,0.76,0.472
SW 900,0.266,0.412,0.217,0.0913,0.152,,,,,,,,,,,0.762,0.682,0.315,0.179,0.107
